The source made the active and inactive calls.
Legend:
[1] = target: T1, RNA-binding protein pos-1 (Caenorhabditis elegans, UniProt G5EF15); assay: disruptors of C. elegans POS-1 RNA interaction – biochemical, fluorescence polarization, dose response (AID 1964);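 note: purified POS-1 fused to maltose binding protein made in E. coli; potency of compounds blocking POS-1 binding to fluorescent RNA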
T1 sequence (G5EF15 whole entry): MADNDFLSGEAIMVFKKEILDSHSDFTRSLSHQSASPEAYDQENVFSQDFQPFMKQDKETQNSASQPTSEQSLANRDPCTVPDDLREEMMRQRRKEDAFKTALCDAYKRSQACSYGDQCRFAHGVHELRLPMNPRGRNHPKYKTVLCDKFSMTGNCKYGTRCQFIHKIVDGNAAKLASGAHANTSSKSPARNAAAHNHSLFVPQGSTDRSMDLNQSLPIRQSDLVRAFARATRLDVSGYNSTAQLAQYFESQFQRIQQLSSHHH

[2] = target: T2, Polyadenylate-binding protein 1 (Homo sapiens, UniProt P11940); assay: MLLE binding blockers, Cy5 peptide tracer – biochemical, fluorescence polarization, Cy5-PAM2 peptide, secondary, miRNA deadenylation inhibitor project, dose response (AID 602260); assay type: functional; conditions: read-out: IC50_Mean
Estrogen receptor = target: T3, Estrogen receptor (Homo sapiens, UniProt P03372);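 note: potency for inhibiting coactivator peptide recruitment to the receptor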
T3 sequence (P03372 whole entry): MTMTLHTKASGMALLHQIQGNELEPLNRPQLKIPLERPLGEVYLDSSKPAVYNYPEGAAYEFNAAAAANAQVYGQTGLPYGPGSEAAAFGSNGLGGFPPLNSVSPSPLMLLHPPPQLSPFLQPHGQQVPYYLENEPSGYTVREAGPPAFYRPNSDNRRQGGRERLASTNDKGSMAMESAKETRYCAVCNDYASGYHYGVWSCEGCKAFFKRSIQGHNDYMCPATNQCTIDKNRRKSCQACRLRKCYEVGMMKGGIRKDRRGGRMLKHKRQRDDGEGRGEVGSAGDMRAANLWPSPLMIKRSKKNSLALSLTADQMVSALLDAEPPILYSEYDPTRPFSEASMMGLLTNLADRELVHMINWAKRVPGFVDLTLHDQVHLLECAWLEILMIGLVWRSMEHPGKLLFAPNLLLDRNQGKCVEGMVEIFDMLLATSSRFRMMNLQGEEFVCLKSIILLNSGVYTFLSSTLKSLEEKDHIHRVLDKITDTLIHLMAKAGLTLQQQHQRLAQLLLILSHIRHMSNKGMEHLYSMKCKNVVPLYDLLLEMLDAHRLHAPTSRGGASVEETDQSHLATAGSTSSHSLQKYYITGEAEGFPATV

[3] = target: T4, Zinc finger protein mex-5 (Caenorhabditis elegans, UniProt Q9XUB2); assay: potency of MEX-5 RNA-binding blockers – biochemical, C. elegans, fluorescence polarization, dose response (AID 1960)
T4 sequence (Q9XUB2 whole entry): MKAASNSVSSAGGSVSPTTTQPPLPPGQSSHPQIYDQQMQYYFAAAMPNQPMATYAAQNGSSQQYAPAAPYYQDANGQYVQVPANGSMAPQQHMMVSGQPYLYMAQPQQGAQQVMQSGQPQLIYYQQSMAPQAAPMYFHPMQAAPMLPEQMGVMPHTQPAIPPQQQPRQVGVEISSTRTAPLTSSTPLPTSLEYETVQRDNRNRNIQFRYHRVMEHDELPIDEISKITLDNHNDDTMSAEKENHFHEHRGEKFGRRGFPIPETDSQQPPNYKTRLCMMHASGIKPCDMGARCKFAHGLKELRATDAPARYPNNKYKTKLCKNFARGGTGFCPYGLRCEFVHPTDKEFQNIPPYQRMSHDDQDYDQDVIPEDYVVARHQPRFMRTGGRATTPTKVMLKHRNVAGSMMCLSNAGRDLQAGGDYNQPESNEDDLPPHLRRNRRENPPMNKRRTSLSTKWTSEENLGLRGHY

[4] = target: T2, Polyadenylate-binding protein 1; assay: MLLE domain peptide-binding blockers, IC50 – biochemical, fluorescence polarization, FITC-PAM2 peptide, dose response (AID 602259); assay type: functional; conditions: read-out: IC50_Mean
[5] = Luminescence Cell-Based Dose Response HTS to Identify Activators of Luciferase Translation or Activity in H4 […] Cells. [Related pubchem assays: 1829 (Project Summary), 1814 (Primary HTS)]; assay type: functional
[6] = Luminescence Cell-Based Dose Confirmation HTS to Identify Activators of 5'UTR Stem-Loop Driven Alpha-Synuclein mRNA Translation in H4 Neuroglioblastoma Cells. [Related pubchem assays: 1829 (Project Summary), 1814 (Primary HTS)]; assay type: functional
H4 = assay: Luminescence Cell-Based Dose Response HTS to Identify Activators of 5'UTR Stem-Loop Driven Prion Protein mRNA Translation in H4 Neuroglioblastoma Cells. [Related pubchem assays: 1829 (Project Summary), 1814 (Primary HTS)]; assay type: functional; conditions: Homo sapiens
[7] = target: Glyceraldehyde-3-phosphate dehydrogenase (Homo sapiens, UniProt P04406)
cells = assay type: functional
Genome polyprotein = Genome polyprotein (dengue virus type 2, UniProt P29990); assay: flavivirus cap methylation enzyme inhibition – biochemical, confirmation dose response, primary screen (AID 588689); assay type: functional
[8] = THP-1 cell cytotoxicity, dose response, cytotoxicity control for non-replicating M. tuberculosis project (AID 489025); assay type: functional
[9] = Vero E6 cell cytotoxicity, dose response, cytotoxicity control for non-replicating M. tuberculosis project, secondary assay (AID 492998); assay type: functional, VeroE6; conditions: Vero C1008
[10] = microbe, parasite or virus in culture; assay type: functional; conditions: Mycobacterium tuberculosis
[11] = tested on: Streptococcus sp. 'group A'; assay: Streptococcus pyogenes SK(-)GAS viability under kanamycin – luminescence, BacTiterGlo, confirmation, counter-screen for streptokinase expression inhibitor project, dose response (AID 1900); assay type: functional, organism-based
Streptococcus = assay: GAS UMAA2166 growth inhibition – luminescence, BacTiterGlo, counter-screen for streptokinase expression inhibitor project, dose response (AID 1915); assay type: functional, organism-based;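 note: potency for reduction of bacterial viability or growth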
Streptokinase A = target: T5, Streptokinase A (Streptococcus pyogenes serotype M1, UniProt P10520); assay: viability-normalized secreted streptokinase activity reduction – plasminogen activation absorbance, OD405, dose response (AID 1914); assay type: functional, Streptococcus pyogenes M1 GAS;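 note: secreted streptokinase activity via plasminogen activation per viability signal from cell pellet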
T5 sequence (P10520 whole entry): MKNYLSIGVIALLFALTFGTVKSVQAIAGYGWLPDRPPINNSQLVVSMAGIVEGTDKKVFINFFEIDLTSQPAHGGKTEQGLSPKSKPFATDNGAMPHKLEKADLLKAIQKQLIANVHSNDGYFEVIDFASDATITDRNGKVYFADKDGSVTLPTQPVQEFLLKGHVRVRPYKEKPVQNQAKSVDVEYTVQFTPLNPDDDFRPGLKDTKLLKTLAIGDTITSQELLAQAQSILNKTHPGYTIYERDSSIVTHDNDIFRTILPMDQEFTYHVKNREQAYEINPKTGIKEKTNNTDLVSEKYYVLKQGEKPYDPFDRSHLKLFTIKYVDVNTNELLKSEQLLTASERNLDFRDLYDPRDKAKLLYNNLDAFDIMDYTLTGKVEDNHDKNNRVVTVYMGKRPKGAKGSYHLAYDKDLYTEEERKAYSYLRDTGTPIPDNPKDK

Large T antigen = Large T antigen (Simian virus 40, UniProt P03070); assay type: functional, Betapolyomavirus macacae;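 note: Confirmatory-stage PubChem screen for compounds that inhibit SV40 T antigen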
SN12K1 = assay: cells; assay type: functional; conditions: Homo sapiens
[12] = OVCAR-3 cell viability loss – plate reader, dry powder samples, PAX8 inhibitor project, dose response (AID 743044); assay type: functional, cell-based
Paired box protein Pax-8 = Paired box protein Pax-8 (Homo sapiens, UniProt Q06710); assay: PAX8 transcriptional activity inhibition in RMG-I – RMG-I cells, luciferase, cherry-pick, dose response (AID 687027); assay type: functional, cell-based;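 note: luciferase reporter driven by Pax8 target thyroperoxidase promoter measured by SteadyGlo luminescence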
[13] = target: FAD-linked sulfhydryl oxidase ALR (Homo sapiens, UniProt P55789); assay: ALR-catalysed DTT oxidation blockers – biochemical, H2O2 detection, luminescence, cherry-pick, dose response (AID 493248)
[14] = P. falciparum Dd2 growth inhibitors, dose response, SYBR Green, cherry-picked samples (AID 1159567); assay type: functional, cell-based

Genome polyprotein, sequence (P29990 2492-3391 limits assumed): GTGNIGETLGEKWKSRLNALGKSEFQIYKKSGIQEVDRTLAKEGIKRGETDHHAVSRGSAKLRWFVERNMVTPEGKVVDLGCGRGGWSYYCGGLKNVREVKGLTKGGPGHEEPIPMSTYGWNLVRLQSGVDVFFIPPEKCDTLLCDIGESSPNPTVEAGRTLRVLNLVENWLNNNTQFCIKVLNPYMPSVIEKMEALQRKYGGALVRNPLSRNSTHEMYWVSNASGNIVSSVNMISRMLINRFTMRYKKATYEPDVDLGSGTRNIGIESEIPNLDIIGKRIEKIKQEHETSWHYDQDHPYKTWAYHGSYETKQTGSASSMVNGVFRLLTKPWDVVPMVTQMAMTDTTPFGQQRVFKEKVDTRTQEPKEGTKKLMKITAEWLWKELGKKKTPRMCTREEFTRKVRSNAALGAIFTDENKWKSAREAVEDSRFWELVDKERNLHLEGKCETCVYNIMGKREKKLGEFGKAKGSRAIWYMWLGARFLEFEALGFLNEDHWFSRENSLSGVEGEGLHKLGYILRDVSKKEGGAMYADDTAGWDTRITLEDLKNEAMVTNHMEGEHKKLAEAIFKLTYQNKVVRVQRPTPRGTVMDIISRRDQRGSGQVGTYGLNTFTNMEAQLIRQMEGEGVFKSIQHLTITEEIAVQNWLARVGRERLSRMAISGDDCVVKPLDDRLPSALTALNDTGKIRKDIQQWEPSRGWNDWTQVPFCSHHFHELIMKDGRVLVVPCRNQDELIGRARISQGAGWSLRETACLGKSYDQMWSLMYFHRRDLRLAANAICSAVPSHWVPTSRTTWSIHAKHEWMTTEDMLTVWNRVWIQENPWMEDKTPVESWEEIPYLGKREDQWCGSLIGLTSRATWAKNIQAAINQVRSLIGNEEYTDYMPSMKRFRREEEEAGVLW
Large T antigen, sequence (P03070 whole entry): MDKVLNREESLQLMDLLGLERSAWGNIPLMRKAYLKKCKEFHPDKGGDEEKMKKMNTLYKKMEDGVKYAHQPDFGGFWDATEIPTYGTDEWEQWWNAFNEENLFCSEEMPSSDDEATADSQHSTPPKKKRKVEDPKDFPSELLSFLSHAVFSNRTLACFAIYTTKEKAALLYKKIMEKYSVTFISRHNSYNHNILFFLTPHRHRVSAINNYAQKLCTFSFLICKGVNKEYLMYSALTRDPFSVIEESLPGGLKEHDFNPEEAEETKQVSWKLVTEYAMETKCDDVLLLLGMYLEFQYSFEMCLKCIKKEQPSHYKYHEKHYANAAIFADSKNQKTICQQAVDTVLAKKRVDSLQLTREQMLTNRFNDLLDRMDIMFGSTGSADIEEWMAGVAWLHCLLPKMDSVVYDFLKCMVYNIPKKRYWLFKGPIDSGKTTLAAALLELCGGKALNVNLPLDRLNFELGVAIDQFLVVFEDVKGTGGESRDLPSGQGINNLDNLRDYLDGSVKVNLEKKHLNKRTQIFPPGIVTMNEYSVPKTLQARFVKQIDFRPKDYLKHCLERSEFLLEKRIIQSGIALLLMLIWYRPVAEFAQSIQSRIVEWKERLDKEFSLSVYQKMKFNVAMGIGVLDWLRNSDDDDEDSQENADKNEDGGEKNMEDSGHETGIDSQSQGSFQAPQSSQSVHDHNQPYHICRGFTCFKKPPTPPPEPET
T2 sequence (P11940 whole entry): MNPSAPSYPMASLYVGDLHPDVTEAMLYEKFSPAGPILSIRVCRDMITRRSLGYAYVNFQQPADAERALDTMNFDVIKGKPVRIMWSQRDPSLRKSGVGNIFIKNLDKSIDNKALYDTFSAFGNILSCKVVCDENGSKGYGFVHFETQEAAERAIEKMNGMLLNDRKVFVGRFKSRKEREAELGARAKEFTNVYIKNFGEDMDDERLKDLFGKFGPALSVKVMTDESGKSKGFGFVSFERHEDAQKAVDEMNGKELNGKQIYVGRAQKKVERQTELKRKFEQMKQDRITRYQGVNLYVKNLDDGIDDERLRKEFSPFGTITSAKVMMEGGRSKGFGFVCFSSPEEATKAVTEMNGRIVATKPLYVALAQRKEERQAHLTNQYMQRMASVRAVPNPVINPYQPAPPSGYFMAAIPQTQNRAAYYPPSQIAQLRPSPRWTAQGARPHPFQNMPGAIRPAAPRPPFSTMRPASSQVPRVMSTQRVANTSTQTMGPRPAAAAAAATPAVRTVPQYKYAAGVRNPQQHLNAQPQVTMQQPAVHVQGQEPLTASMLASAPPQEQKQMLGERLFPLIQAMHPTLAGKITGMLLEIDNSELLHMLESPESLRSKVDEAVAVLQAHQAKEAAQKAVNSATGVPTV
Glyceraldehyde-3-phosphate dehydrogenase, sequence (P04406 whole entry): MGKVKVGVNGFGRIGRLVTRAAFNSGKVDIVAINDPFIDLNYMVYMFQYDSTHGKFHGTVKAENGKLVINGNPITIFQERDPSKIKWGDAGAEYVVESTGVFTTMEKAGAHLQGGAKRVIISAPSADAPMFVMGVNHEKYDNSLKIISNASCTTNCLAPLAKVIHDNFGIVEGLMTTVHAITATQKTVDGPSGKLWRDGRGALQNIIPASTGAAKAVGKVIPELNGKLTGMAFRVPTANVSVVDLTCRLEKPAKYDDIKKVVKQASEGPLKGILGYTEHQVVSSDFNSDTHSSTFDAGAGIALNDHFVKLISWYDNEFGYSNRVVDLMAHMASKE
Paired box protein Pax-8, sequence (Q06710 whole entry): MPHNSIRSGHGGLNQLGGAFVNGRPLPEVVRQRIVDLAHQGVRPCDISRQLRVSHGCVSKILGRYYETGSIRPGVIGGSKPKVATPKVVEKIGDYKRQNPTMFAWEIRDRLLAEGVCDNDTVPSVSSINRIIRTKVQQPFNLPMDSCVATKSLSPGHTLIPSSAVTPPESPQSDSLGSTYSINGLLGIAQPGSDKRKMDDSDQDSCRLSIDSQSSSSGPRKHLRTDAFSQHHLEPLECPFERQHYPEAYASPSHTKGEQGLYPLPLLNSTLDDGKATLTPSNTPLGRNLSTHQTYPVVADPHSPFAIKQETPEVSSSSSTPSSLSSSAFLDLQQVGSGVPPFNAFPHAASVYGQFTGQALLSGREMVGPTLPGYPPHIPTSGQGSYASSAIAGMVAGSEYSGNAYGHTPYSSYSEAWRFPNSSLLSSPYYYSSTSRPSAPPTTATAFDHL
FAD-linked sulfhydryl oxidase ALR, sequence (P55789 whole entry): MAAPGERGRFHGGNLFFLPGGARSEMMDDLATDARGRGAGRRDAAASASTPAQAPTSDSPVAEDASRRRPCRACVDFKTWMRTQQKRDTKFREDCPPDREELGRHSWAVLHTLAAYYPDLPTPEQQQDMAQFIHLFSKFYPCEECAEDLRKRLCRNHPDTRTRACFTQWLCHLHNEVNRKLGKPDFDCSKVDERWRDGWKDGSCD

In the case of Fc1ccc(NCc2cccnc2)cc1F, the EC50 [1] is reported as 15.4 µM (active), the IC50 [2] is reported as > 66 µM (inactive) and the IC50 (Estrogen receptor) is reported as > 50 µM (not active). For the same compound, the EC50 [3] was 11.2 µM (active) and the IC50 [4] was 49.1 µM (inactive).
With O=C(COn1nnc2ccccc21)NCC1CCCCC1 the EC50 [5] was 68.8 µM (active), the EC50 [6] was 5.83 µM (active) and the EC50 (H4) was 31.9 µM (inconclusive).
In the case of COc1cccc(N2C(=O)C(Cl)=C(N3CCN(c4ncccn4)CC3)C2=O)c1, the IC50 [7] is reported as > 50 µM (inconclusive).
With CC12CN3CC(C)(CN(C1)C3c1ccc([N+](=O)[O-])o1)C2 (stereo not drawn) the IC50 (cells) was 11.1 µM (active).
For COc1ccccc1-c1cc(C(=O)Nc2sc3c(c2C#N)CCC(C)C3)c2ccccc2n1 (stereo not drawn), the IC50 (Genome polyprotein) was 97.8 µM (active).
In the case of Cn1cnc([N+](=O)[O-])c1Sc1ccc(Br)cc1, the IC50 (cells) is reported as 11.5 µM (active), the CC50 [8] is reported as 34.4 µM (active) and the CC50 [9] is reported as > 20 µM (active). The CC50 [10] was 32.4 µM (active).
With CSCCC1NC(=O)NC1=O (stereo not drawn) the IC50 (Estrogen receptor) was > 50 µM (not active).
For COc1cc2cc(C(c3nnnn3C3CCCC3)N3CCc4ccccc43)c(=O)[nH]c2cc1OC (stereo not drawn), the IC50 (Estrogen receptor) was 21.9 µM (active).
In the case of Cc1cc(O)nc(-n2nc(C)cc2C)n1, the IC50 (cells) is reported as 3.82 µM (active), the CC50 [8] is reported as > 40 µM (active) and the CC50 [9] is reported as > 20 µM (active).
For COc1ccc2cc(C(=O)C3CCCN(Cc4cccc(C)n4)C3)ccc2c1 (stereo not drawn), the IC50 (cells) was 3 µM (active), the EC50 [11] was 11.1 µM (active) and the CC50 [8] was > 40 µM (active). For the same compound, the EC50 (Streptococcus) was > 150 µM (not active) and the EC50 (Streptokinase A) was > 150 µM (not active).
In the case of C=CCOc1c(Br)cc(/C=C2/C(=O)ON=C2C)cc1OC, the IC50 (Genome polyprotein) is reported as > 100 µM (active).
With Cc1ccc(CCC(=O)Nc2cc(Cl)ccc2Cl)o1 the IC50 (cells) was 42.8 µM (active).
For Cc1cccn2c(CN(C)CCC3CCCCO3)c(C(=O)N3CCCCC3)nc12 (stereo not drawn), the EC50 [5] was > 120 µM (not active), the EC50 [6] was 19.9 µM (active) and the EC50 (H4) was > 120 µM (not active).
With CC1(C)CC(=O)C(C(c2ccc(Br)cc2)C2C(=O)CC(C)(C)CC2=O)C(=O)C1 the IC50 (Genome polyprotein) was 79.3 µM (active).
With O=C(O)c1cc(S(=O)(=O)O)cc(Nc2c3ccccc3nc3ccccc23)c1O the IC50 (Large T antigen) was 20.2 µM (active).
For COc1ccc(N2CCN(C3=C(Cl)C(=O)N(c4cccc(C(F)(F)F)c4)C3=O)CC2)cc1, the IC50 [7] was > 50 µM (inconclusive).
For Cn1c(=O)c2c(nc(NCC3CCCC(CN)C3)n2Cc2ccc(Cl)cc2Cl)n(C)c1=O (stereo not drawn), the EC50 [5] was > 120 µM (not active), the EC50 [6] was > 120 µM (not active) and the EC50 (H4) was > 120 µM (not active).
In the case of O=C(c1ccc(-c2ccc([N+](=O)[O-])cc2)o1)N1CCCCCCC1, the IC50 (cells) is reported as 12.7 µM (active), the CC50 [8] is reported as 9 µM (active) and the CC50 [9] is reported as 9.37 µM (active).
For COC(=O)C1=C(O)/C(=C\c2ccc(CNC(=O)C(=O)Nc3ccc(C)c(C)c3)o2)N=C1C, the IC50 (Estrogen receptor) was 19.6 µM (active).
In the case of O=[N+]([O-])c1ccc(Sc2n[nH]c(-c3ccccc3)n2)nc1, the EC50 [5] is reported as 93.9 µM (active), the EC50 [6] is reported as 5.81 µM (active) and the EC50 (H4) is reported as > 120 µM (not active).
For Cc1ccc(NC(=O)C2OCCc3ccccc32)cc1 (stereo not drawn), the EC50 [5] was 12 µM (active), the EC50 [6] was 14.7 µM (active) and the EC50 (H4) was 31.4 µM (active).
For CCOC(=O)c1ccsc1NC(=O)CCS(=O)(=O)c1ccccc1, the CC50 [8] was 34.5 µM (active) and the CC50 [9] was > 20 µM (active).
With CCN(CC)c1ccc(NC(=O)c2ccccc2F)cc1 the IC50 (Large T antigen) was 18.8 µM (active).
For COc1ccc2nc(NC3=NCCC3)sc2c1, the EC50 [5] was 22.1 µM (active), the EC50 [6] was 37.7 µM (active) and the EC50 (H4) was 8.52 µM (active).
In the case of CN(C)CCNC(=O)c1cc([N+](=O)[O-])cc2ccc(-c3ccccc3)nc12, the GI50 (SN12K1) is reported as 3.04 µM (inactive).
In the case of O=C(C[C@@H]1CC[C@@H]2[C@H](COC[C@@H](O)CN2S(=O)(=O)c2cccc(Cl)c2)O1)Nc1ccc(-c2ccccc2)cc1, the AC50 [12] is reported as 18.9 µM (active) and the AC50 (Paired box protein Pax-8) is reported as 9.62 µM (active).
In the case of Cc1ccc(S(=O)(=O)N2CCN(CC(=O)N/N=C\c3ccc(O)c(O)c3)CC2)cc1, the IC50 (Large T antigen) is reported as 9.98 µM (active) and the AC50 [13] is reported as 2.26 µM (active).
In the case of COC(=O)c1ccc(/N=C/c2c(-c3ccccc3)n[nH]c2O)cc1, the EC50 [5] is reported as > 120 µM (not active), the EC50 [6] is reported as > 120 µM (not active) and the EC50 (H4) is reported as > 120 µM (not active).
For COc1cc(/C=c2\sc3nc(-c4ccncc4)nn3c2=O)ccc1OC(C)=O, the IC50 (Estrogen receptor) was 31.7 µM (not active).
In the case of Cc1ccccc1S(=O)(=O)N(C)C[C@H]1OCc2ccccc2-c2ccccc2C(=O)N([C@@H](C)CO)C[C@H]1C, the AC50 [14] is reported as 20.9 µM (active).
In the case of N#Cc1cccc(-c2ccc3c(c2)[C@H]2[C@H](CCN2C(=O)c2ccncc2)[C@H](CO)N3)c1, the AC50 [14] is reported as 7.86 µM (active).

Source: ChEMBL document CHEMBL1201862, “PubChem BioAssay data set” (2004)
